Test results: ChEMBL document CHEMBL1141589, “Synthesis and biological evaluation of NO-donor-tacrine hybrids as hepatoprotective anti-Alzheimer drug candidates” (J Med Chem, 2008)
pEC50, pIC50: −log10 of the molar value.

Assays:
Acetylcholinesterase = Acetylcholinesterase (Homo sapiens, UniProt P22303); assay: Inhibition of AChE by Ellman's assay
Cholinesterase = Cholinesterase (Homo sapiens, UniProt P06276)
Description: Inhibition of BuChE by Ellman's assay

Artery = assay: tissue or blood; settings: Sus scrofa
Description: Vasorelaxation activity in PGF2-alpha-precontracted pig pulmonary artery

Cholinesterase, sequence (P06276 whole entry): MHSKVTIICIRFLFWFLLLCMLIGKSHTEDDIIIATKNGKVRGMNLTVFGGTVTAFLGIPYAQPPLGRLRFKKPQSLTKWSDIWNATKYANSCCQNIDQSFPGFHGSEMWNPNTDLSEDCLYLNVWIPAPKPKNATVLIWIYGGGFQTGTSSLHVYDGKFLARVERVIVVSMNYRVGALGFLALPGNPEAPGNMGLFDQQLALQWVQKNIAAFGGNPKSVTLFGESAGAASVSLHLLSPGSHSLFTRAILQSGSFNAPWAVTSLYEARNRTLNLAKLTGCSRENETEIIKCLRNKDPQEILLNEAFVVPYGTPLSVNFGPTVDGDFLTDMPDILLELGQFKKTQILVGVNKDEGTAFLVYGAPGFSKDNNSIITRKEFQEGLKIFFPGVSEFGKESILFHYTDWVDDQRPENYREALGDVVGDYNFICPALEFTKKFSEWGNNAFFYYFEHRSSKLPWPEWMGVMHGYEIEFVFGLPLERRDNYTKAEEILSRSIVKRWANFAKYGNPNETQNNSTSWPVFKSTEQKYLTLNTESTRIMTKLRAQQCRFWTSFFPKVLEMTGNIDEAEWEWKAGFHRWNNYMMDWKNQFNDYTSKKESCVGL
Acetylcholinesterase, sequence (P22303 whole entry): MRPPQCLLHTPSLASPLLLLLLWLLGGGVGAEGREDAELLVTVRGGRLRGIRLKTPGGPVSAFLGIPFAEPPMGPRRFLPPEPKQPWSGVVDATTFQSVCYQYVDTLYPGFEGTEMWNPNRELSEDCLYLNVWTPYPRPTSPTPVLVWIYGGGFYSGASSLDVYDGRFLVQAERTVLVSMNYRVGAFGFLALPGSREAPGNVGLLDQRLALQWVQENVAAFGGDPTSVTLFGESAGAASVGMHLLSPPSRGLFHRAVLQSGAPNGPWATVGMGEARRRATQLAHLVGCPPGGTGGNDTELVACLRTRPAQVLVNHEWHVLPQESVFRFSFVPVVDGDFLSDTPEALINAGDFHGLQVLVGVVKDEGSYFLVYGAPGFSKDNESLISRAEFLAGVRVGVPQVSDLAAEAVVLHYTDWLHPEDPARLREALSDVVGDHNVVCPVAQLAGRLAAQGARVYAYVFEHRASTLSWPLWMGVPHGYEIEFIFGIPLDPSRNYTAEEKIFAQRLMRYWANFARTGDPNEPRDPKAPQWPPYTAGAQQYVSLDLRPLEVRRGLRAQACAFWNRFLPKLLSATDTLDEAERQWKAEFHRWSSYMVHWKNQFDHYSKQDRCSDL

`O=[N+]([O-])OCCCCCCNCCCCNc1c2c(nc3ccccc13)CCCC2` showed a pIC50 (Acetylcholinesterase) of 7.74 and a pIC50 (Cholinesterase) of 7.97.

`O=C(CO/N=[N+](\[O-])N1CCCC1)NCCCCNc1c2c(nc3ccccc13)CCCC2` gave a pIC50 (Acetylcholinesterase) of 7.29 and a pIC50 (Cholinesterase) of 7.39.

In the case of `O=[N+]([O-])OCCCCCCNCCCNc1c2c(nc3ccccc13)CCCC2`, the pIC50 (Acetylcholinesterase) was 8.20 and the pIC50 (Cholinesterase) was 7.66.

`O=C(CCO[N+](=O)[O-])NCCCNc1c2c(nc3ccccc13)CCCC2` gave a pIC50 (Acetylcholinesterase) of 7.03 and a pIC50 (Cholinesterase) of 7.55.

`O=C(CO[N+](=O)[O-])NCCCNc1c2c(nc3ccccc13)CCCC2` was tested, and the pIC50 (Acetylcholinesterase) was 7.55, the pIC50 (Cholinesterase) was 7.87 and the pEC50 (Artery) was 5.43.

With `CC(C)(CO[N+](=O)[O-])C(=O)NCCCNc1c2c(nc3ccccc13)CCCC2` the pIC50 (Acetylcholinesterase) was 7.16 and the pIC50 (Cholinesterase) was 8.26.

`O=[N+]([O-])OCCCNCCCNc1c2c(nc3ccccc13)CCCC2` showed a pIC50 (Acetylcholinesterase) of 8.19 and a pIC50 (Cholinesterase) of 8.26.

`CC(C)(C)C(=O)NCCCCNc1c2c(nc3ccccc13)CCCC2` was tested, and the pIC50 (Acetylcholinesterase) was 7.67 and the pIC50 (Cholinesterase) was 7.44.

`CC(C)(CO[N+](=O)[O-])C(=O)NCCCCNc1c2c(nc3ccccc13)CCCC2` gave a pIC50 (Acetylcholinesterase) of 6.65, a pIC50 (Cholinesterase) of 8.14 and a pEC50 (Artery) of 4.98.

`O=[N+]([O-])OCCNCCCNc1c2c(nc3ccccc13)CCCC2` showed a pIC50 (Acetylcholinesterase) of 8.00 and a pIC50 (Cholinesterase) of 8.28.

Compound `O=C(CCO[N+](=O)[O-])NCCCCNc1c2c(nc3ccccc13)CCCC2` has a pIC50 (Acetylcholinesterase) of 7.34 and a pIC50 (Cholinesterase) of 7.82.

`O=C(CO/N=[N+](\[O-])N1CCCC1)NCCCNc1c2c(nc3ccccc13)CCCC2` gave a pIC50 (Acetylcholinesterase) of 7.45, a pIC50 (Cholinesterase) of 7.82 and a pEC50 (Artery) of 4.65.

For `O=C(CO[N+](=O)[O-])NCCCCNc1c2c(nc3ccccc13)CCCC2`, the pIC50 (Acetylcholinesterase) was 7.65 and the pIC50 (Cholinesterase) was 7.92.

`O=[N+]([O-])OCCNCCCCNc1c2c(nc3ccccc13)CCCC2` was tested, and the pIC50 (Acetylcholinesterase) was 7.95 and the pIC50 (Cholinesterase) was 7.86.

`O=[N+]([O-])OCCCNCCCCNc1c2c(nc3ccccc13)CCCC2` showed a pIC50 (Acetylcholinesterase) of 8.25, a pIC50 (Cholinesterase) of 8.00 and a pEC50 (Artery) of 5.06.

`O=[N+]([O-])O[C@H]1CO[C@H]2[C@@H]1OC[C@H]2O[N+](=O)[O-]` [ISOSORBIDE DINITRATE] was tested, and the pEC50 (Artery) was 6.38.
